Usually Ki stands for a measure of affinity in units of concentration, obtained from inhibition or displacement.

The target in assay [1] is mushroom tyrosinase. The experiment in a line: Tyrosinase enzymatic assay (diphenolase activity, dose-response IC50). The assay is classed as biochemical, Agaricus bisporus. The following applies: for IC50: L-DOPA 1 mM as substrate, pH 6.8, 25 °C, n = 3; for Ratio of IC50 of Kojic Acid to IC50 of TSC: mushroom tyrosinase diphenolase activity. The protocol: In order to determine the IC50, dose–response analysis for all investigated compounds was performed. […] The enzyme was isolated from Agaricus bisporus, purchased from a local supplier in Wroclaw, and prepared as described in our previous papers, according to known procedures reported in the literature. The full description of enzyme preparation is included in the Supplementary Materials (Section 2). […] L-DOPA was dissolved in a 0.15 mM phosphoric (V) acid solution to a concentration of 5 mM. […] The isolated tyrosinase solution (0.5 mg/mL, 40,000 U/mg) was diluted 10 times in sodium phosphate buffer (0,1 M, pH 6.8). […] The optimal ionic strength and pH for tyrosinase activity were provided by 0.1 M sodium phosphate buffer (pH 6.8). […] The control sample contained the same reagents as the test samples except for the substrate. […] The concentration of L-3,4-dihydroxyphenylalanine (L-DOPA) was 1 mM in all the cases.

Assay [2] relates to B16F10 murine melanoma cells. The experiment in a line: Measurement of melanin production in α-MSH-stimulated cells. Format: cell-based. The following applies: for IC50: B16F10 cells stimulated with α-MSH 100 nM, 48 h with inhibitor, absorbance 405 nm, read-out: Inhibition of Melanin Production IC50. The protocol:
In the presence of α-MSH, the cells were treated with the inhibitors after 24 h. […] Kojic acid was used as a positive control, and dimethyl sulfoxide (DMSO) was used as a solvent control. Melanin content was measured spectrophotometrically at 405 nm. […] Cells were maintained in 5% CO2 at 37 °C. […] The cells were seeded into a 96-well plate (5 × 10^3 cells/well) and stimulated with α-MSH (100 nM, Sigma-Aldrich, Taufkirchen, Germany). […] After 48 h of incubation with inhibitors, cells were solubilized in 1 N sodium hydroxide (1 N, 60 °C, 2 h). In order to measure melanin content, absorbance was measured (λ = 405 nm) using a microplate reader.

For assay [3], the system named is B16F10 murine melanoma cells. The experiment in a line: Cell proliferation assay (MTT). To be noted: read-out: Inhibition of Cell Proliferation IC50. Format: cell-based. The protocol:
In the presence of α-MSH, the cells were treated with the inhibitors after 24 h. […] Kojic acid was used as a positive control, and dimethyl sulfoxide (DMSO) was used as a solvent control. Melanin content was measured spectrophotometrically at 405 nm. […] Cells were maintained in 5% CO2 at 37 °C. Cell viability was estimated using the MTT colorimetric assay as described in our previous papers and by Bellei et al.. […] Kojic acid and DMSO were used as controls. MTT was added to wells (0.625 mg/mL, Sigma-Aldrich, Taufkirchen, Germany) for the last 4 h. Then, lysing buffer was added to dissolve insoluble formazan. The absorbance was measured (λ = 570 nm) using a Thermo Lab Multiscan RC microplate reader.

Assay [4] deals with mushroom tyrosinase. The experiment in a line: Kinetic studies of tyrosinase inhibition (Lineweaver-Burk and secondary plots). Format: biochemical, Agaricus bisporus. The following applies: for Inhibition Mechanism / Inhibition Type: diphenolase activity of mushroom tyrosinase, L-DOPA; for Inhibition Type: Lineweaver-Burk plot; for Ki: n = 3, secondary plots, read-out: Ki ± Standard Error (inhibition constant for enzyme-inhibitor complex). Here is the method: The kinetics of the interaction between TSCs 1–12 and mushroom tyrosinase were determined. […] The inhibition type was determined through creation of the Lineweaver–Burk plot (double reciprocal plot), which enables easier analysis of the Michaelis–Menten plot. […] Inhibition constants Ki were determined from the secondary plots of km (Michaelis constant) versus the inhibitor concentration for competitive inhibition and by the secondary plots of the slope of the lines from the Lineweaver–Burk plot as a function of the inhibitor concentration for mixed-type inhibition. […] They were all competitive inhibitors, whereas meta- and ortho-substituted compounds were mixed inhibitors. The inhibition mechanism for the investigated compounds was also tested. […] L-DOPA was dissolved in a 0.15 mM phosphoric (V) acid solution to a concentration of 5 mM. […] The isolated tyrosinase solution (0.5 mg/mL, 40,000 U/mg) was diluted 10 times in sodium phosphate buffer (0,1 M, pH 6.8). […] The optimal ionic strength and pH for tyrosinase activity were provided by 0.1 M sodium phosphate buffer (pH 6.8). […] The control sample contained the same reagents as the test samples except for the substrate. […] (b) Secondary plot of km versus inhibitor concentrations for determination of Ki for competitive inhibition. (c) Plot to determine the inhibitory mechanism.

Molecules are shown by their SMILES. Values joined by “and” are separate entries in the source; they are usually repeats but may differ in a detail not shown here. Equal entries are not always repeated. Bounds are passed on as bounds.

With `C/C(=N/NC(N)=S)c1ccccc1` [Acetophenone TSC, acetophenone thiosemicarbazones], at mushroom tyrosinase [1], the IC50 is 1.5 µM and the “Ratio of IC50 of Kojic Acid to IC50 of TSC” value (“Ratio of IC50 of Kojic Acid” below) came out at 13.2.

In the case of `NC(=S)N/N=C\c1ccccc1` [Benzaldehyde TSC, benzaldehyde thiosemicarbazone, reference compound], on mushroom tyrosinase [1], the IC50 came out at 3.4 µM and the “Ratio of IC50 of Kojic Acid” value is 5.6.

As for `C[S+](C)[O-]` [DMSO, dimethyl sulfoxide], the IC50 in assay [2] amounted to 8020 µM; in assay [3] (48 h) it was 166 µM.

For `O=c1cc(CO)occ1O` [Kojic acid, reference compound], in the assay on mushroom tyrosinase [4], the “Inhibition Mechanism” value is “reversible” and the “Inhibition Type” value was “mixed”. Further, in assay [2] (Mus musculus, B16-F10, 48 h), the IC50 was 114 µM. Moreover, the IC50 in assay [3] (Mus musculus, B16-F10, 48 h) amounted to 153 µM.

`COc1ccccc1C(C)=NNC(N)=S` [TSC 1, 2’-methoxyacetophenone thiosemicarbazone]: in the assay on mushroom tyrosinase [4], the “Inhibition Mechanism” value is listed as “reversible”, the “Inhibition Type” value is given as “mixed-type” and the Ki was 5 ± 1.4 µM. Moreover, at mushroom tyrosinase [1], the IC50 was determined as 12.2 µM and the “Ratio of IC50 of Kojic Acid” value was found to be 1.6. Moreover, the IC50 in assay [2] (Mus musculus, B16-F10, 48 h) was found to be 39.2 µM. The IC50 in assay [3] (Mus musculus, B16-F10, 48 h) came out at 45.2 µM.

As to `COc1cccc(/C(C)=N/NC(N)=S)c1` [TSC 2, (E)-3’-Methoxyacetophenone thiosemicarbazone], in the assay with mushroom tyrosinase [4], the “Inhibition Mechanism” value is “reversible”, the “Inhibition Type” value was “mixed-type” and the inhibition constant (Ki) worked out at 1 ± 0.1 µM. On mushroom tyrosinase [1], the IC50 came out at 1.9 µM and the “Ratio of IC50 of Kojic Acid” value is on record as 10.5. For the same compound, in assay [3] (Mus musculus, B16-F10, 48 h), the IC50 was 22.4 µM.

`COc1ccc(/C(C)=N/NC(N)=S)cc1` [TSC 3, (E)-4’-Methoxyacetophenone thiosemicarbazone]: in the assay with mushroom tyrosinase [4], the “Inhibition Mechanism” value is reported as “reversible”, the “Inhibition Type” value was “competitive” and the Ki amounted to 0.6 ± 0.01 µM. Besides, the “Inhibition Type” value in the assay on mushroom tyrosinase [4] (listed as Compound 3) is listed as “competitively”. At mushroom tyrosinase [1], the IC50 was found to be 1.8 µM and the “Ratio of IC50 of Kojic Acid” value came to 11.1. Moreover, in assay [3] (Mus musculus, B16-F10, 48 h), the IC50 is 20.3 µM.

`CC(=NNC(N)=S)c1ccccc1N` [TSC 4, 2’-aminoacetophenone thiosemicarbazone]: in the assay on mushroom tyrosinase [4], the “Inhibition Mechanism” value is “reversible”, the “Inhibition Type” value is reported as “mixed-type” and the Ki amounted to 8 ± 0.9 µM. Besides, on mushroom tyrosinase [1], the IC50 was 11.3 µM and the “Ratio of IC50 of Kojic Acid” value worked out at 1.8. Also, the IC50 in assay [2] (Mus musculus, B16-F10, 48 h) worked out at 208 µM.

Take `C/C(=N\NC(N)=S)c1cccc(N)c1` [TSC 5, (E)-3’-Aminoacetophenone thiosemicarbazone]: in the assay on mushroom tyrosinase [4], the “Inhibition Mechanism” value is given as “reversible”, the “Inhibition Type” value is given as “mixed-type” and the Ki amounted to 0.6 ± 0.1 µM. Also, on mushroom tyrosinase [1], the IC50 was 0.65 µM and the “Ratio of IC50 of Kojic Acid” value is 30.6. For the same compound, in assay [2] (Mus musculus, B16-F10, 48 h), the IC50 is 88.9 µM. Also, in assay [3] (Mus musculus, B16-F10, 48 h), the IC50 was 150 µM.

Regarding `C/C(=N\NC(N)=S)c1ccc(N)cc1` [TSC 6, (E)-4’-Aminoacetophenone thiosemicarbazone], in the assay with mushroom tyrosinase [4], the “Inhibition Mechanism” value is given as “reversible”, the “Inhibition Type” value was “competitively” and the Ki was determined as 0.2 ± 0.06 µM. Further, in assay [2] (Mus musculus, B16-F10, 48 h), the IC50 was found to be 139 µM. Besides, in assay [3] (Mus musculus, B16-F10, 48 h), the IC50 was found to be 155 µM.

Take `CC(=NNC(N)=S)c1ccccc1O` [TSC 7, 2’-hydroxyacetophenone thiosemicarbazone]: in the assay on mushroom tyrosinase [4], the “Inhibition Mechanism” value is given as “reversible”, the “Inhibition Type” value was “mixed-type” and the Ki came to 0.7 ± 0.1 µM. For the same compound, at mushroom tyrosinase [1], the IC50 stood at 1.2 µM and the “Ratio of IC50 of Kojic Acid” value is 16.5. Moreover, the IC50 in assay [2] came out at 21.7 µM. Besides, the IC50 in assay [2] (Mus musculus, B16-F10, 48 h) was under 30 µM. Also, in assay [3] (Mus musculus, B16-F10, 48 h), the IC50 was found to be 37.3 µM.

As to `C/C(=N\NC(N)=S)c1cccc(O)c1` [TSC 8, (E)-3’-Hydroxyacetophenone thiosemicarbazone], in the assay on mushroom tyrosinase [4], the “Inhibition Mechanism” value is given as “reversible”, the “Inhibition Type” value is “mixed-type” and the inhibitory constant (Ki) was found to be 0.6 ± 0.08 µM. Moreover, on mushroom tyrosinase [1], the IC50 came out at 0.95 µM; the “Ratio of IC50 of Kojic Acid” value was 20 and 20.9. In addition, the IC50 in assay [2] (Mus musculus, B16-F10, 48 h) was determined as 69.5 µM. Besides, the IC50 in assay [3] (Mus musculus, B16-F10, 48 h) stood at 103 µM.

With `C/C(=N\NC(N)=S)c1ccc(O)cc1` [TSC 9, (E)-4’-Hydroxyacetophenone thiosemicarbazone], in the assay with mushroom tyrosinase [4], the “Inhibition Mechanism” value is listed as “reversible”. Further, the results for the “Inhibition Type” value in the assay with mushroom tyrosinase [4] and with mushroom tyrosinase [4] (listed as Compound 9) were “competitive” and “competitively”, respectively. For the same compound, on mushroom tyrosinase [4], the Ki came to 0.6 ± 0.06 µM. The IC50 at mushroom tyrosinase [1] was 0.8 µM; in assay [2], 25.2 µM; in assay [2] (Mus musculus, B16-F10, 48 h) it was under 30 µM; in assay [3] (Mus musculus, B16-F10, 48 h) it was 115 µM. The “Ratio of IC50 of Kojic Acid” value in the assay with mushroom tyrosinase [1] was 20 and 24.9. Moreover, the “Ratio of IC50 for the inhibition of B16F10 cell proliferation to IC50 for the inhibition of melanin production” value in assay [2] (B16F10 cells) was determined as 4.6.

Consider `C/C(=N\NC(N)=S)c1ccccc1[N+](=O)[O-]` [TSC 10, (E)-2’-Nitroacetophenone thiosemicarbazone], for which, in the assay on mushroom tyrosinase [4], the “Inhibition Mechanism” value is “reversible”, the “Inhibition Type” value is “mixed-type” and the Ki was 8.6 ± 0.5 µM. Besides, at mushroom tyrosinase [1], the IC50 was over 150 µM and the “Ratio of IC50 of Kojic Acid” value is listed as 0.1. In assay [2] (Mus musculus, B16-F10, 48 h), the IC50 came out at 77.8 µM. Besides, in assay [3] (Mus musculus, B16-F10, 48 h), the IC50 was found to be 93.2 µM.

Turning to `C/C(=N\NC(N)=S)c1cccc([N+](=O)[O-])c1` [TSC 11, (E)-3’-Nitroacetophenone thiosemicarbazone], the “Inhibition Mechanism” value in the assay on mushroom tyrosinase [4] was “reversible”. Moreover, in the assay on mushroom tyrosinase [4] (listed as Compound 11), the “Inhibition Type” value was “competitively”. The Ki on mushroom tyrosinase [4] was 0.4 ± 0.02 µM. In addition, the IC50 is 14.2 µM on mushroom tyrosinase [1]; 44 µM in assay [2] (Mus musculus, B16-F10, 48 h); 44.8 µM in assay [3] (Mus musculus, B16-F10, 48 h). Also, the “Ratio of IC50 of Kojic Acid” value in the assay on mushroom tyrosinase [1] worked out at 1.4.

In the case of `C/C(=N\NC(N)=S)c1ccc([N+](=O)[O-])cc1` [TSC 12, (E)-4’-Nitroacetophenone thiosemicarbazone], in the assay on mushroom tyrosinase [4], the “Inhibition Mechanism” value is “reversible” and the “Inhibition Type” value is reported as “mixed”. The “Ratio of IC50 of Kojic Acid” value in the assay on mushroom tyrosinase [1] is reported as 12.4. The IC50 in assay [3] (Mus musculus, B16-F10, 48 h) was 137 µM.

(Values after article PMC7831505, “Monosubstituted Acetophenone Thiosemicarbazones as Potent Inhibitors of Tyrosinase: Synthesis, Inhibitory Studies, and Molecular Docking” (Pharmaceuticals, 2021).)
